In brackets after ≈: the same amount, converted by molar mass.
What was measured:
[1] = Achievable dissolution concentrations of individual components in 60% TBA cosolvent without NaCl; type: physicochemical; conditions: 60% TBA without NaCl; for Measured Concentration (mg/ml) AVG: average of 3, room temperature; for Measured Concentration (mg/ml) 1: replicate 1; for Measured Concentration (mg/ml) 2: replicate 2; for Measured Concentration (mg/ml) 3: replicate 3
[2] = Individual component solubility in t-butanol/water solutions (HPLC); conditions: about 37° C.

Row | Measured Concentration (mg/ml) AVG [1] | Measured Concentration (mg/ml) 1 [1] | Measured Concentration (mg/ml) 2 [1] | Measured Concentration (mg/ml) 3 [1] | Solubility (mg/ml) 50% ([2]; 50% t-butanol/water) | Solubility (mg/ml) 80% ([2]; 80% t-butanol/water) | Solubility (mg/ml) 90% ([2]; 90% t-butanol/water) | Solubility (mg/ml) 95% ([2]; 95% t-butanol/water) | Solubility (mg/ml) 97.5% ([2]; 97.5% t-butanol/water) | Solubility (mg/ml) 99% ([2]; 99% t-butanol/water) | Solubility (mg/ml) 100% ([2]; 100% t-butanol) | Compound
1 | 290.9 mg/mL | 298.4 mg/mL | 283.7 mg/mL | 290.6 mg/mL | >47 mg/mL | >119 mg/mL | >160 mg/mL | 34 mg/mL (≈ 45.4 mM) | 20 mg/mL (≈ 26.7 mM) | <5 mg/mL | <5 mg/mL | CCCCCCCC/C=C\CCCCCCCC(=O)O[C@H](COC(=O)CCCCCCCCCCCCCCC)COP(=O)(O)OCC(O)CO (stereo partly drawn) [POPG, palmitoyloleoyl phosphatidylglycerol]
2 | 35.0 mg/mL | 34.8 mg/mL | 35.0 mg/mL | 35.2 mg/mL |  |  |  |  |  |  |  | CCCCCCCCCCCCCCCC(=O)OC[C@H](COP(=O)([O-])OCC[N+](C)(C)C)OC(=O)CCCCCCCCCCCCCCC [DPPC, dipalmitoyl phosphatidylcholine]
